# Measurements taken from patent US20110275798A1, “Method for Determination of Sirolimus Stability and Process for Preparing Its Stable Form” (priority 2009, published 2011).
# Assay: Stability (degradation) of sirolimus solid forms
# Type: physicochemical
structure (smiles),measurement,setting,value
CO[C@H]1C[C@@H]2CC[C@@H](C)[C@@](O)(O2)C(=O)C(=O)N2CCCC[C@H]2C(=O)O[C@H]([C@H](C)C[C@@H]2CC[C@@H](O)[C@H](OC)C2)CC(=O)[C@H](C)/C=C(\C)[C@@H](O)[C@@H](OC)C(=O)[C@H](C)C[C@H](C)/C=C/C=C/C=C/1C [sirolimus],stability (degradation),amorphous form,degrades at a fast rate
same,stability (degradation),crystalline form,substantially stable
